Measurements published in publication PMC7026418, “The kinase polypharmacology landscape of clinical PARP inhibitors” (Scientific Reports, 2020).
Read-outs that look alike come from different tables or passages of the source.

Assays:
Assay in all cases: biochemical
Parameters in all cases: DiscoveRx KINOMEscan active site-directed competition binding; percent of control kinase bound to immobilised ligand
CDK7 = CDK7 (Homo sapiens, UniProt P50613)
EGFR(G719C) = EGFR(G719C) (Homo sapiens, UniProt P00533, G719C)
Sequence of EGFR(G719C) (P00533 whole entry G719C): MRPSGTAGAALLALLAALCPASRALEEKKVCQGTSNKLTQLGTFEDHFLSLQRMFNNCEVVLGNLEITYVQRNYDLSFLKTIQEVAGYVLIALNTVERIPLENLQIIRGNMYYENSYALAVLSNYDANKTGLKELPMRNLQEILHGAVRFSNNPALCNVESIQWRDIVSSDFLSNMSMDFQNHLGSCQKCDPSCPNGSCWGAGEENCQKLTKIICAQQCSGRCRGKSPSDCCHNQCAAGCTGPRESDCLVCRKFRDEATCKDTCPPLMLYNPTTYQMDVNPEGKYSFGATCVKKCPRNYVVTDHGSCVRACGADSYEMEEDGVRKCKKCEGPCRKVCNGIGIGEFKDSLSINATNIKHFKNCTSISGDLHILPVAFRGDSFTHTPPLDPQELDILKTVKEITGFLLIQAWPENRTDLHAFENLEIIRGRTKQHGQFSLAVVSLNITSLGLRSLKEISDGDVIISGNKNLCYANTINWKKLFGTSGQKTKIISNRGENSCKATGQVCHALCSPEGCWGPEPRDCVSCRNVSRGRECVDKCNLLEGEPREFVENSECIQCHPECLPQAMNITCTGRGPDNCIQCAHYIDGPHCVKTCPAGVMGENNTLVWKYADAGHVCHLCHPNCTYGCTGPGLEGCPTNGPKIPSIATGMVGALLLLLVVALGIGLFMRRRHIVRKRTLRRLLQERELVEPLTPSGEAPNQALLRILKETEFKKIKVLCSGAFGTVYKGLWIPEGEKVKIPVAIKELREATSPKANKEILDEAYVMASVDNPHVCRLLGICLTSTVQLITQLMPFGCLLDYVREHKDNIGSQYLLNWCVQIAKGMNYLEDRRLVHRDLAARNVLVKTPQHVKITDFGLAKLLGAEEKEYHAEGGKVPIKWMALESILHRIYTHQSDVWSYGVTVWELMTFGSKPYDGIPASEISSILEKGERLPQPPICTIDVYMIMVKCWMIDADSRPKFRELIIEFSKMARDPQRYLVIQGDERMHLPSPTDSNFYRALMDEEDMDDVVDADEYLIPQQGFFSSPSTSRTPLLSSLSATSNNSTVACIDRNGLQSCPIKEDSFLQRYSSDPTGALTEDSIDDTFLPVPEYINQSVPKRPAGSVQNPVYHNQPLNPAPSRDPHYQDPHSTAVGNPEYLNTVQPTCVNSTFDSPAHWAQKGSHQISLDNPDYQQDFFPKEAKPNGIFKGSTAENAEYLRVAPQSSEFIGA

HPK1 = molecular target: T1, HPK1 (Homo sapiens, UniProt Q92918)
T1 construct: gene MAP4K1
T1 sequence (Q92918 whole entry): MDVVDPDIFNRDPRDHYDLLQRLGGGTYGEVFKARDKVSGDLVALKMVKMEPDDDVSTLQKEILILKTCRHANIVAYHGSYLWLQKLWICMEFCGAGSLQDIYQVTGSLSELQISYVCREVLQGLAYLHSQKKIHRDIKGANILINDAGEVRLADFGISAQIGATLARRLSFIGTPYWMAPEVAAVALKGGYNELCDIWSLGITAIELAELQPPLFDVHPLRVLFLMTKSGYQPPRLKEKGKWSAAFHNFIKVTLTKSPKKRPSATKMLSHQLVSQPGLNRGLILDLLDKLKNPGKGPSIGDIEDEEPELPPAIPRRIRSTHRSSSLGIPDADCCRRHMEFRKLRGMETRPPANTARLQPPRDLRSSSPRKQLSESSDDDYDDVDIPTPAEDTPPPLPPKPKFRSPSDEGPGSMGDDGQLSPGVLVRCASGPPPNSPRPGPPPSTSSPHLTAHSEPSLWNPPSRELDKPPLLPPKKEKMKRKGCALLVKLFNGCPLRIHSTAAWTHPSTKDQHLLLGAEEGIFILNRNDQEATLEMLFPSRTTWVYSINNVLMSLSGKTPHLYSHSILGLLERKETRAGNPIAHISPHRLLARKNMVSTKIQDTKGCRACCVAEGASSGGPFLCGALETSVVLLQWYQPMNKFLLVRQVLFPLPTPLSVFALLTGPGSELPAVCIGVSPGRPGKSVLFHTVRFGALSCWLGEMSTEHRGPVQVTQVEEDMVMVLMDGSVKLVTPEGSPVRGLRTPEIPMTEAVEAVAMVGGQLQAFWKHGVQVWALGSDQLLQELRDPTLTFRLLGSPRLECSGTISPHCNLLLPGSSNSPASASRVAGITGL

JNK2 = molecular target: T2, JNK2 (Homo sapiens, UniProt P45984)
T2 construct: gene MAPK9
T2 sequence (P45984 whole entry): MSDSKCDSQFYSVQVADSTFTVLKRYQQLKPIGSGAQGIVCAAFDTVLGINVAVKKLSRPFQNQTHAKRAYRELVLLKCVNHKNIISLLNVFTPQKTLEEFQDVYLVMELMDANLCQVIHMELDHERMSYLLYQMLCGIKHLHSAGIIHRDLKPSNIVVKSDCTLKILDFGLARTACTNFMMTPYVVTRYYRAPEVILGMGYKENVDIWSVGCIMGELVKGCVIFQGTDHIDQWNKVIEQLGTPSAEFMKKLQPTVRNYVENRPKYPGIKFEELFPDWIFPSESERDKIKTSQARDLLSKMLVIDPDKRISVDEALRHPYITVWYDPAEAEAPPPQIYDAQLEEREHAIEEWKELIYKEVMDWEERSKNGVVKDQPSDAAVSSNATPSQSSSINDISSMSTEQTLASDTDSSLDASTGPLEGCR

KIT = KIT (Homo sapiens, UniProt P10721)
Sequence of KIT (P10721 whole entry): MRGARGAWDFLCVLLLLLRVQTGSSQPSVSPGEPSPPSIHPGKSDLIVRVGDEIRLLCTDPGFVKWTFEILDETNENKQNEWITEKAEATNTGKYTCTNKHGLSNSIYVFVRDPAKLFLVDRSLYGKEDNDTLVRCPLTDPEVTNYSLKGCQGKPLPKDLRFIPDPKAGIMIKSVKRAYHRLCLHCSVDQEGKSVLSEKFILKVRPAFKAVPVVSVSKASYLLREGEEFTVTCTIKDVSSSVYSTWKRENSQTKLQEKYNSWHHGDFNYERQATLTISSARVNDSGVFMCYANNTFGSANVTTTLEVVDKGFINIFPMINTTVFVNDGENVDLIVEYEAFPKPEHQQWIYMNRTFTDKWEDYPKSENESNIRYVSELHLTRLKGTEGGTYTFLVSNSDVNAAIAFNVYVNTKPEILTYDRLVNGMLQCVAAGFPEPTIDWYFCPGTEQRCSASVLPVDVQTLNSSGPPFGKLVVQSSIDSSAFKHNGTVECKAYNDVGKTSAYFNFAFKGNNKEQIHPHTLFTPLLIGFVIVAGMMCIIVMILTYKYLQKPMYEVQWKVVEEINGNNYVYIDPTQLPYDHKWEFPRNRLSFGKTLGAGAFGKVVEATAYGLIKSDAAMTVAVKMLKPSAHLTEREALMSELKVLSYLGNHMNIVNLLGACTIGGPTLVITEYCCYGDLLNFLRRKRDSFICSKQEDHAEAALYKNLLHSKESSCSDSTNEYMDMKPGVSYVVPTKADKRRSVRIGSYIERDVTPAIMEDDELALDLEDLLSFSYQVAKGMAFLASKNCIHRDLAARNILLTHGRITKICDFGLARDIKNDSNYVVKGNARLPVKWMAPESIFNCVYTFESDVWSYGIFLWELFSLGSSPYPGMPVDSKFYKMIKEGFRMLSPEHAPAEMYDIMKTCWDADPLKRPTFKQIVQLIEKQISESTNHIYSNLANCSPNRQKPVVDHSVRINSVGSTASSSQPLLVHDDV

MAP3K2 = molecular target: T3, MAP3K2 (Homo sapiens, UniProt Q9Y2U5)
T3 sequence (Q9Y2U5 1-619): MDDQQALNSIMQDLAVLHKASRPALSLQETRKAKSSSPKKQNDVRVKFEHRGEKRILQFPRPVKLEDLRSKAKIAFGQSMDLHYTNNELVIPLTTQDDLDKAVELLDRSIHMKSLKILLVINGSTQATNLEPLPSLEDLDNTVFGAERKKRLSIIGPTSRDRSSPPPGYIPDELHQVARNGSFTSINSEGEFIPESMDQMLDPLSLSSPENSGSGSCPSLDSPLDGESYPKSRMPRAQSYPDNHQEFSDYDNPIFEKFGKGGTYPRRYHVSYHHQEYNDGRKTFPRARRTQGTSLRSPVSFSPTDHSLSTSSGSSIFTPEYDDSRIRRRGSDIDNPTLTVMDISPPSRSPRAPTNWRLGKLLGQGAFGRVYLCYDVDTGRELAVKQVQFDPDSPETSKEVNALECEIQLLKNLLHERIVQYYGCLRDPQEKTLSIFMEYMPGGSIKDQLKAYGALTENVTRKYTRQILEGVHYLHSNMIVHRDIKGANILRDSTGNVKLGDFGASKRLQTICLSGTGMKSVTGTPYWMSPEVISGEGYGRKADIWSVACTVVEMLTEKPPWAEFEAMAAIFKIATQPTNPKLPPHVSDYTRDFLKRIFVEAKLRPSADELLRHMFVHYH

MLK1 = molecular target: T4, MLK1 (Homo sapiens, UniProt P80192)
T4 construct: gene MAP3K9

NEK10 = molecular target: T5, NEK10 (Homo sapiens, UniProt Q6ZWH5)
T5 sequence (Q6ZWH5 1-1172): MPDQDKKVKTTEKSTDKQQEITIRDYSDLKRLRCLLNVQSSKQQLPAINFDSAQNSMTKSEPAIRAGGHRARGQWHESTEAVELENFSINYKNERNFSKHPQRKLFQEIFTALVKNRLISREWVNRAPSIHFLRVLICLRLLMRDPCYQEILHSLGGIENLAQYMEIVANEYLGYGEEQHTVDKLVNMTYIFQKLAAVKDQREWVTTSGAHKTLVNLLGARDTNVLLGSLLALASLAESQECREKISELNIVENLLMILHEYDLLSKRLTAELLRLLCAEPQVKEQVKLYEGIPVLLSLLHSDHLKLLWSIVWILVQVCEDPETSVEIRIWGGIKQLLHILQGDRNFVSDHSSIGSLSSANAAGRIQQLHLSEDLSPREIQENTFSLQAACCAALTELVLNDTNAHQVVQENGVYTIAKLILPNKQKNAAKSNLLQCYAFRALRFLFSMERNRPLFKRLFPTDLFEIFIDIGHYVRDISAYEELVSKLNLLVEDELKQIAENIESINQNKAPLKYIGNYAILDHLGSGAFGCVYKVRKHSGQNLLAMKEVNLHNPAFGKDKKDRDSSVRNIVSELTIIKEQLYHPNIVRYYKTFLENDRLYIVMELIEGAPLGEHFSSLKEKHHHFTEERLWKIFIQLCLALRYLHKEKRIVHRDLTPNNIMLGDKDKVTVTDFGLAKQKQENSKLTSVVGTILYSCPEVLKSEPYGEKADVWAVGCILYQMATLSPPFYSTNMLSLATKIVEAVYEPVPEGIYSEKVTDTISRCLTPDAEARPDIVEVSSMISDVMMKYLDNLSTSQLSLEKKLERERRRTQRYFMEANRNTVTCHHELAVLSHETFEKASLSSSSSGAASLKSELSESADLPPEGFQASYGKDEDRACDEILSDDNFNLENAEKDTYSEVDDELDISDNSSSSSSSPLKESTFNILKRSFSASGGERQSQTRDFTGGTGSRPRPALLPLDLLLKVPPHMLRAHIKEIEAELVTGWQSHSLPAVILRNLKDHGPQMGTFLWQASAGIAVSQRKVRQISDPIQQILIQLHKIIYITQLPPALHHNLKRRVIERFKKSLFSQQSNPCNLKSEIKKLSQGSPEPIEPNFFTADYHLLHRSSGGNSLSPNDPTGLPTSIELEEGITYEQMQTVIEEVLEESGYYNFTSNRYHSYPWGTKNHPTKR

PKAC-alpha = molecular target: T6, PKAC-alpha (Homo sapiens, UniProt P17612)
T6 construct: gene PRKACA

PRKCQ = PRKCQ (Homo sapiens, UniProt Q04759)
Sequence of PRKCQ (Q04759 whole entry): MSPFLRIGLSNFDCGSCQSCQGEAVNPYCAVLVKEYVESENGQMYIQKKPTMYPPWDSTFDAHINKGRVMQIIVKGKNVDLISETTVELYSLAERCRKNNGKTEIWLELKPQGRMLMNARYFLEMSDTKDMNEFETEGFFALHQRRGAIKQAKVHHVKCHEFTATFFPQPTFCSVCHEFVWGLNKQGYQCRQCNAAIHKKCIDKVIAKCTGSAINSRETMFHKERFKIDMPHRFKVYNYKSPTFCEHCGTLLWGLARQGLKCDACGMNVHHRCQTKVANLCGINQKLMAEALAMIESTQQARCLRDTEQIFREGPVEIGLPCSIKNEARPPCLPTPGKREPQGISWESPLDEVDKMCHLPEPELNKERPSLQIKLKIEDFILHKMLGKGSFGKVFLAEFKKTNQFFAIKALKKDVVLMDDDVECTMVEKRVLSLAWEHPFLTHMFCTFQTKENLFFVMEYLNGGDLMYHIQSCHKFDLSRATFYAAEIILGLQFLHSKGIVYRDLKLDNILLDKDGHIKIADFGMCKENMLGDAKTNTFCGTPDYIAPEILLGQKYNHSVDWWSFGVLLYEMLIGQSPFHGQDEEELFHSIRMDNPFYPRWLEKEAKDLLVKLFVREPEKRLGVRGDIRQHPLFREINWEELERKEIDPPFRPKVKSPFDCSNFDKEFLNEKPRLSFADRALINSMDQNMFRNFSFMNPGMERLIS

VRK2 = VRK2 (Homo sapiens, UniProt Q86Y07)
Sequence of VRK2 (Q86Y07 whole entry): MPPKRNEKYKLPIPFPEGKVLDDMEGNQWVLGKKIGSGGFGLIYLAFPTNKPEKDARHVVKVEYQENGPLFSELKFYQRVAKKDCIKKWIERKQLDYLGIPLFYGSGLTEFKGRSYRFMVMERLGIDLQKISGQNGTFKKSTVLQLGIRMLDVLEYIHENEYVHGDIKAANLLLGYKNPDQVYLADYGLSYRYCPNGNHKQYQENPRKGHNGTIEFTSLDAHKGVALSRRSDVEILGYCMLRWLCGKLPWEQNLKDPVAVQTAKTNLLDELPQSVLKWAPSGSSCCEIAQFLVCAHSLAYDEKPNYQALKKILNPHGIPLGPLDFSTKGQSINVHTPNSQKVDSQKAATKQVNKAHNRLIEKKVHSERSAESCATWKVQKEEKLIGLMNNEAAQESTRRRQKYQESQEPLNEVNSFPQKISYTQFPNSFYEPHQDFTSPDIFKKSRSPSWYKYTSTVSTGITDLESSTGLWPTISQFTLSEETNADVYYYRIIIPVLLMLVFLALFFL

[1] = read-out: Talazoparib (BMN 673) / %Ctrl @ 10000nM
[2] = read-out: Olaparib / %Ctrl @ 10000nM
[3] = read-out: Rucaparib / %Ctrl @ 10000nM, binding competition, % of control
[4] = read-out: Niraparib (MK-4827) / %Ctrl @ 10000nM

Sequence of CDK7 (P50613 whole entry): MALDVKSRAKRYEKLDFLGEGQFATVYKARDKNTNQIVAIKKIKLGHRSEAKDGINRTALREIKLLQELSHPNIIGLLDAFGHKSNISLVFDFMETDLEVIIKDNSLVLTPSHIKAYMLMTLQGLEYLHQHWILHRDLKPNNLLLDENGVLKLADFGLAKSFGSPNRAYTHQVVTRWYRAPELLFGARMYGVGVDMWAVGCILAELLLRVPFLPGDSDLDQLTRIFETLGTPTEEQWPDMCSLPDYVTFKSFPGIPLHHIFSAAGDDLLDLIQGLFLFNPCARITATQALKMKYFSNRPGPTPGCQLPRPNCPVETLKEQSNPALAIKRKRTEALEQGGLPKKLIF

Cn1ncnc1[C@H]1c2n[nH]c(=O)c3cc(F)cc(c23)N[C@@H]1c1ccc(F)cc1 [Talazoparib]
percent of control binding at 10 µM (CDK7; [1]): 100% | percent of control binding at 10 µM (EGFR(G719C); [1]): 99% | percent of control binding at 10 µM (HPK1; [1]): 85% | percent of control binding at 10 µM (JNK2; [1]): 95% | percent of control binding at 10 µM (KIT; [1]): 100% | percent of control binding at 10 µM (MAP3K2; [1]): 98% | percent of control binding at 10 µM (MLK1; [1]): 77% | percent of control binding at 10 µM (NEK10; [1]): 100% | percent of control binding at 10 µM (PKAC-alpha; [1]): 88% | percent of control binding at 10 µM (PRKCQ; [1]): 89% | percent of control binding at 10 µM (VRK2; [1]): 100%

O=C(c1cc(Cc2n[nH]c(=O)c3ccccc23)ccc1F)N1CCN(C(=O)C2CC2)CC1 [Olaparib]
percent of control binding at 10 µM (CDK7; [2]): 89% | percent of control binding at 10 µM (EGFR(G719C); [2]): 98% | percent of control binding at 10 µM (HPK1; [2]): 94% | percent of control binding at 10 µM (JNK2; [2]): 81% | percent of control binding at 10 µM (KIT; [2]): 99% | percent of control binding at 10 µM (MAP3K2; [2]): 92% | percent of control binding at 10 µM (MLK1; [2]): 100% | percent of control binding at 10 µM (NEK10; [2]): 78% | percent of control binding at 10 µM (PKAC-alpha; [2]): 100% | percent of control binding at 10 µM (PRKCQ; [2]): 95% | percent of control binding at 10 µM (VRK2; [2]): 99%

CNCc1ccc(-c2[nH]c3cc(F)cc4c3c2CCNC4=O)cc1 [Rucaparib]
percent of control binding at 10 µM (CDK7; [3]): 71% | percent of control binding at 10 µM (EGFR(G719C); [3]): 82% | percent of control binding at 10 µM (HPK1; [3]): 96% | percent of control binding at 10 µM (JNK2; [3]): 68% | percent of control binding at 10 µM (KIT; [3]): 100% | percent of control binding at 10 µM (MAP3K2; [3]): 82% | percent of control binding at 10 µM (MLK1; [3]): 100% | percent of control binding at 10 µM (NEK10; [3]): 14% | percent of control binding at 10 µM (PKAC-alpha; [3]): 100% | percent of control binding at 10 µM (PRKCQ; [3]): 93% | percent of control binding at 10 µM (VRK2; [3]): 95%

NC(=O)c1cccc2cn(-c3ccc([C@@H]4CCCNC4)cc3)nc12 [Niraparib]
percent of control binding at 10 µM (CDK7; [4]): 73% | percent of control binding at 10 µM (EGFR(G719C); [4]): 86% | percent of control binding at 10 µM (HPK1; [4]): 100% | percent of control binding at 10 µM (JNK2; [4]): 95% | percent of control binding at 10 µM (KIT; [4]): 87% | percent of control binding at 10 µM (MAP3K2; [4]): 97% | percent of control binding at 10 µM (MLK1; [4]): 87% | percent of control binding at 10 µM (NEK10; [4]): 68% | percent of control binding at 10 µM (PKAC-alpha; [4]): 86% | percent of control binding at 10 µM (PRKCQ; [4]): 73% | percent of control binding at 10 µM (VRK2; [4]): 65%
